Results on 23 compounds are retold here after US20040248245A1, “Zinc activated ion channel” (priority 2003, published 2004).

The target in one experiment is T1, human ZAC (zinc activated ion channel) (Homo sapiens, UniProt Q401N2).
T1 construct: expressed in transfected cells; host or cells: HEK (human embryonic kidney) cells, transient calcium phosphate transfection, vector pcDNA1.1/amp, GFP co-transfected on a separate plasmid (pCDM8)
T1 sequence (Q401N2 26-412): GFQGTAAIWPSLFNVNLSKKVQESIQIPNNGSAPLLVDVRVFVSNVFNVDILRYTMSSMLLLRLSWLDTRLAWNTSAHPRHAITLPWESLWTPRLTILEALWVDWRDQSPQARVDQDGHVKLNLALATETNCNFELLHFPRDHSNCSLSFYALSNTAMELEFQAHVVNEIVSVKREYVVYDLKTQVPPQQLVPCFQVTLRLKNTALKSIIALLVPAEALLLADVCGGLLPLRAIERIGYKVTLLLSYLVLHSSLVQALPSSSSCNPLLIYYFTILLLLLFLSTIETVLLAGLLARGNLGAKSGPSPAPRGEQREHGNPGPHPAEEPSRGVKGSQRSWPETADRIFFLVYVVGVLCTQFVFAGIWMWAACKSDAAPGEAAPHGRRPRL
Kind of experiment: Whole cell patch-clamp recording of currents from HEK cells transfected with human ZAC. It counts as cell-based.
Details: not given
The method, then: To generate HEK expressing hZAC, HEK cells were grown in Dulbecco's modified Eagle's medium, supplemented with 10% calf serum, 100 IU/ml penicillin, and 100 μg/ml streptomycin. Following confluence, the cells were seeded into 35 mm diameter dishes and transfected with cDNAs encoding the human ZAC subunit (in pcDNA1.1/amp) and green fluorescent protein (GFP) (in pCDM8). Cells were transfected using calcium phosphate precipitation as known in the art. Cells were used 24-44 h after transfection.
The whole cell patch-clamp technique was used to record currents from HEK cells. The bath was perfused continuously (5 ml/min) with an extracellular solution containing (in mM); NaCl, 140; KCl, 4.7; MgCl2, 1.2; CaCl2, 2.5; glucose, 11; and HEPES, 10 (pH 7.4 with NaOH). The electrode solution contained (in mM); KCl, 140; MgCl2, 2.0; EGTA, 11; and HEPES, 10 (pH 7.4 with KOH). The intracellular solution used to characterize the cation permeability of ZAC channels contained (in mM); KCl, 70; N-methyl-D-glucamine, 70; MgCl2, 2.0; EGTA, 11; and HEPES, 10 (pH 7.4 with HCl). The intracellular solution used to determine the contribution of Cl^− to the ZAC currents contained (in mM); KCl, 70; K^+ gluconate, 70; MgCl2, 2.0; EGTA, 11; and HEPES, 10 (pH 7.4 with KOH). Junction potentials were nulled prior to each experiment. Inappropriate inappropriate compensation was ignored in graphs of current-voltage relationships, but equilibrium potential values were corrected. Cells were clamped at −60 mV unless otherwise stated. Drugs were applied either by pressure ejection from modified micropipettes or by bath perfusion as known in the art. Experiments were performed at 22-24° C.
Currents were amplied (Axopatch 200A, Axon Instruments), low pass-filtered at 1 kHz, and digitized (Digidata 1320, Axon Instruments, Foster City, Calif.) for acquisition onto the hard drive of a personal computer. Currents were averaged, superimposed, and measured using pCLAMP software (Axon Instruments). Zn^+2 concentration-response data were obtained by prolonged (2 s) pressue ejection of randomized agonist concentrations from low resistance pipettes as known in the art.
To compensate, 1 mM Zn^+2 was applied before each concentration of Zn^+2. The amplitudes of the Zn^+2 activated currents were subsequently normalized to the current elicited by the prior application of 1 mM Zn^+2.
Graphs of concentration-response relationships were fitted using a logistic function as known in the art. Current-voltage relationships were analyzed by averaging at least two currents recorded at each holding potential. Individual current-voltage relationships were plotted, and a linear fit to points either side of current reversal yielded the equilibrium potential. All data are expressed as the arithmetic mean±S.E., and statistical comparisons were made using the Student's t test.
Turning to `CNC[C@H](O)c1ccc(O)c(O)c1` [epinephrine], the “Activation of ZAC” value is given as “did not activate”. The same measure, in the same setting: the result for `CN1CC[C@]23c4c5ccc(O)c4O[C@H]2[C@@H](O)C=C[C@H]3[C@H]1C5` [morphine] reads “did not activate”; that for `CC(C)c1cccc(C(C)C)c1O` [propofol], “did not activate”. For the compound α-bungarotoxin, the “Effect of antagonists on ZAC (inhibition)” value (shortened to “Effect … (inhibition)”) was “no effect”.

Staying with this experiment, now noted: HEK cells expressing hZAC, whole cell patch-clamp.
As to `COc1cc2c3cc1Oc1cc(ccc1O)C[C@@H]1c4c(cc(OC)c(O)c4Oc4ccc(cc4)C[C@@H]3N(C)CC2)CC[N+]1(C)C` [Tubocurarine], the “Effect … (inhibition)” value is listed as “inhibited”. Turning to `[Zn+2]` [Zn^+2, zinc], the “Concentration required for activation of ZAC” value was more than 30 µM.

On to `C[N+]1(C)CCc2cc3c(cc2[C@H]1[C@@H]1OC(=O)c2c1ccc1c2OCO1)OCO3.[I-]` [bicuculline methiodide], for which the “Effect … (inhibition)” value is “no effect”. On to `CNC1(C)C2CCC(C2)C1(C)C` (stereo not shown) [mecamylamine], for which the “Effect … (inhibition)” value is listed as “no effect”. Same read-out and setting: as for `Cc1nccn1CC1CCc2c(c3ccccc3n2C)C1=O` (stereo not shown) [ondansetron], the entry is “no effect”.

The experiment is the same for the next values; noted with them: HEK cells expressing hZAC, whole cell patch-clamp, clamped at −60 mV, 22-24° C.
With `NCCc1c[nH]c2ccc(O)cc12` [5-HT, 5-hydroxytryptamine], the “Activation of ZAC” value was “did not activate”.

As to `Nc1ncnc2c1ncn2[C@@H]1O[C@H](COP(=O)(O)OP(=O)(O)OP(=O)(O)O)[C@@H](O)[C@H]1O` [ATP], the “Activation of ZAC” value is listed as “did not activate”. The same measure, in the same setting: the result for `NCCCC(=O)O` [GABA, γ-amino butyric acid] reads “did not activate”; that for `[Zn+2]` [Zn^+2, zinc], “activated”; that for `CC(=O)[C@H]1CC[C@H]2[C@@H]3CC[C@H]4C[C@H](O)CC[C@]4(C)[C@H]3CC[C@]12C` [allopregnanolone], “did not activate”. The same measure, in the same setting: as for `NCCc1ccc(O)c(O)c1` [dopamine], the entry is “did not activate”; as for `N[C@@H](CCC(=O)O)C(=O)O` [glutamate], “did not activate”. Same read-out and setting: the result for `N[C@@H](CCC(=O)N[C@@H](CS)C(=O)NCC(=O)O)C(=O)O` [glutathione] reads “did not activate”; that for `NCC(=O)O` [glycine], “did not activate”; that for `NCCc1c[nH]cn1` [histamine], “did not activate”. For `CNC1(c2ccccc2Cl)CCCCC1=O` (stereo not shown) [ketamine], the “Activation of ZAC” value is “did not activate”. Still for that read-out and setting: as for `CC[C@H](C)[C@@H]1NC(=O)[C@H](Cc2ccc(O)cc2)NC(=O)[C@@H](N)CSSC[C@@H](C(=O)N2CCC[C@H]2C(=O)N[C@@H](CC(C)C)C(=O)NCC(N)=O)NC(=O)[C@H](CC(N)=O)NC(=O)[C@H](CCC(N)=O)NC1=O` [oxytocin], the entry is “did not activate”. The same measure, in the same setting: the result for galonin reads “did not activate”. As for neuropeptide Y, the “Activation of ZAC” value was “did not activate”. The same measure, in the same setting: the result for somatostain reads “did not activate”.

Still in this experiment, the particulars now being: HEK cells expressing hZAC, whole cell patch-clamp; mean±S.E.
Consider `[Zn+2]` [Zn^+2, zinc], for which the “Equilibrium potential of Zn+2 activated currents” value is −5±1 mV.
